# Experimental data reported in patent publication US7150974B1, “Parathyroid hormone receptor binding method” (The General Hospital Corporation, priority 1991, dated 2006).
# How the values were obtained:
# Type in all cases: binding
# [1] = molecular target: T1, opossum kidney PTH/PTHrP receptor clone, OK-H (Didelphis virginiana, UniProt P25107, I132F/S86P); assay: Radioreceptor assay, COS cells expressing OK-H; details: FIG. 9
# T1 construct: expressed in transfected cells; host or cells: COS cells, transient, plasmid OK-H (pcDNA I)
# Experimental: (§1) In brief, the labeled peptide was dissolved in 0.1% trifluoracetic acid (TFA), applied to a C18 Sep-pak cartridge (Waters Associates, Inc., Milford, Mass.) and eluted with a solution of 60% acetonitrile in 0.1% TFA. After lyophilization, the radioligand then was applied to C18-μBondapak column (3.9 mm×30 cm. Waters Associates) and eluted over 30 min with a linear gradient of 30-50% acetonitrile-0.1% TFA at a flow rate of 2 ml/min.
# (§2) COS-7 cells were grown in 15 cm plates in DMEM, 10% heat-inactivated […], 10 mg/L gentamycin until 80-90% confluent. Twenty-four hours after transfection by the DEAE/Dextran method (Sambrook et al., supra), with 1-2 μg of plasmid DNA, the cells were trypsinized and replated in multiwell plastic dishes (16 or 35 mm diameter, Costar, Cambridge, Mass.) at a cell concentration of 5×10^4 cells/cm^2). […] After continuing culture for another 48 h, radiorecepter assays were performed. The culture medium was replaced with buffer containing 50 mM Tris-HCL (pH 7.7), 100 mM NaCl, 2 mM CaCl2, 5 mM KCL, 0.5% heat-inactivated fetal bovine serum (GIBCO), and 5% heat-inactivated horse serum (KC Biological Inc., Lenexa, Kans.) immediately before studies were initiated.
# (§3) Incubations were terminated by aspirating the buffer, and repeatedly (×3) washing the culture dishes, containing the adherent cells with chilled 0.9% NaCl solution, over a 15 sec period. Cell-bound radioactivity was recovered by the sequential addition (×3) of 1 N NaOH (200 μl) to each well. After 30 min at room temperature, the NaOH was transferred to a glass tube. A second and third extraction with 1 N NaOH (200 μl) were combined with the first, and the total radioactivity was counted in a γ-spectrometer (Packard Instruments, Downers Grove, Ill.).
# [2] = molecular target: T2, human kidney PTH/PTHrP receptor (Homo sapiens, UniProt Q03431, L389Q); assay: Radioreceptor assay, COS-7 cells transiently expressing human kidney PTH/PTHrP receptor (HKrk); details: human versus rat receptor
# T2 construct: The full-length human kidney PTH/PTHrP receptor cDNA, HKrk, was constructed using the BamHI/PvuII fragment of PCR clone #2 and HK-2; expressed in transfected cells; host or cells: COS-7 cells, transient (DEAE/Dextran), pcDNAI
# T2 sequence (Q03431 27-593 L389Q): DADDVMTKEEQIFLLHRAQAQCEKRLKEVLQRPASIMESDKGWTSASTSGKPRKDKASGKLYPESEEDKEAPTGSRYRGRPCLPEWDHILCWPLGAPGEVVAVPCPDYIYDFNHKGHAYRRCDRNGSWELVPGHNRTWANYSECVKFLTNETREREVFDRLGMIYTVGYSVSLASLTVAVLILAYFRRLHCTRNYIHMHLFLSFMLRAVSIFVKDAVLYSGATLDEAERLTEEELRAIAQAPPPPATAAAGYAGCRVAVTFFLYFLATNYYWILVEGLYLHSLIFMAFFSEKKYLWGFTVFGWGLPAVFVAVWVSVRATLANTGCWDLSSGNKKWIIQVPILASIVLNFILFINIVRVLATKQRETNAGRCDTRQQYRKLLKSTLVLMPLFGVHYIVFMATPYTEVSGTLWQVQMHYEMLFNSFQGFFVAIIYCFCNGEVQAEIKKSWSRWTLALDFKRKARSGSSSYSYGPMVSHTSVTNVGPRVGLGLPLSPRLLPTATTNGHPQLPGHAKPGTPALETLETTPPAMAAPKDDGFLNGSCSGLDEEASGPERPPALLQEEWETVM
# Experimental: as §1, §2, §3
# [3] = molecular target: T3, rat bone PTH/PTHrP receptor (Rattus norvegicus, UniProt P25961, E586G); assay: Radioreceptor assay, COS cells expressing rat bone PTH/PTHrP receptor (R15B); details: COS cells expressing R15B, FIG. 13
# T3 construct: expressed in transfected cells; host or cells: COS / COS-7 cells, transient, plasmid R15B (pcDNA I)
# T3 sequence (P25961 27-591 E586G): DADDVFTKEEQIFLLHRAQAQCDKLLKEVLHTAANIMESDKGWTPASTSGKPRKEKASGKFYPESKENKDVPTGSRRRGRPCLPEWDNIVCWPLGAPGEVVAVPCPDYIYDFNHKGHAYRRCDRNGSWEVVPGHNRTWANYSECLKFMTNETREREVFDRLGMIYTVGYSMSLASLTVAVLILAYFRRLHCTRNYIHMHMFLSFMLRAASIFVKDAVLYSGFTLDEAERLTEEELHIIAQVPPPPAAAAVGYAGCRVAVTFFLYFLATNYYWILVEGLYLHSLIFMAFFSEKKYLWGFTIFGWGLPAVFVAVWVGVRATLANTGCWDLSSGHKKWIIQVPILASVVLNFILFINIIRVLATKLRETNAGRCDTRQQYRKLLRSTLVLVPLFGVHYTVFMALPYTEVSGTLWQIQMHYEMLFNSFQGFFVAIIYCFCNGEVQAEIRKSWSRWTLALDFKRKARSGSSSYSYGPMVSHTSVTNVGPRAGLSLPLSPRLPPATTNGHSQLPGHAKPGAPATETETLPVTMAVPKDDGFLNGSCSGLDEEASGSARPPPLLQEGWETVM
# Experimental: as §1, §2, §3
# [4] = molecular target: T4, opossum kidney PTH/PTHrp receptor clone, OK-O (Didelphis virginiana, UniProt P25107, I132F/S86P); assay: Radioreceptor assay, COS cells expressing OK-O; details: FIG. 11
# T4 construct: expressed in transfected cells; host or cells: COS cells, transient, plasmid OK-O (pcDNA I)
# Experimental: [Nle^8,Nle^18,Tyr^34]bPTH-(1-34)amide (NlePTH), and [Tyr^36]PTHrP(1-36)amide(PTHrP) were iodinated with Na^125I (carrier free, New England Nuclear, Boston, Mass.) as previously reported (Segre et al., J. Biol. Chem. 254: 6980, 1979), and purified by reverse-phase HPLC. In brief, the labeled peptide was dissolved in 0.1% trifluoracetic acid (TFA), applied to a C18 Sep-pak cartridge (Waters Associates, Inc., Milford, Mass.) and eluted with a solution of 60% acetonitrile in 0.1% TFA. After lyophilization, the radioligand then was applied to C18-μBondapak column (3.9 mm×30 cm. Waters Associates) and eluted over 30 min with a linear gradient of 30-50% acetonitrile-0.1% TFA at a flow rate of 2 ml/min. The radioligand eluted in two peaks; the first peak, which eluted at approximately 38% acetonitrile, was used in these studies because it gave higher total and specific bindings. The specific activity was 500±75 mCi/mg, which corresponds to an average iodine-peptide ratio of 1.
# COS-7 cells were grown in 15 cm plates in DMEM, 10% heat-inactivated […], 10 mg/L gentamycin until 80-90% confluent. Twenty-four hours after transfection by the DEAE/Dextran method (Sambrook et al., supra), with 1-2 μg of plasmid DNA, the cells were trypsinized and replated in multiwell plastic dishes (16 or 35 mm diameter, Costar, Cambridge, Mass.) at a cell concentration of 5×10^4 cells/cm^2). Cell number increased only slightly after transfection. After continuing culture for another 48 h, radiorecepter assays were performed. […]
# as §3, with “After 30 min at room temperature, the NaOH was transferred to a glass tube.” left out, “Ill.). […]” for “Ill.).”
# T4 sequence (P25107 27-585 S86P/I132F): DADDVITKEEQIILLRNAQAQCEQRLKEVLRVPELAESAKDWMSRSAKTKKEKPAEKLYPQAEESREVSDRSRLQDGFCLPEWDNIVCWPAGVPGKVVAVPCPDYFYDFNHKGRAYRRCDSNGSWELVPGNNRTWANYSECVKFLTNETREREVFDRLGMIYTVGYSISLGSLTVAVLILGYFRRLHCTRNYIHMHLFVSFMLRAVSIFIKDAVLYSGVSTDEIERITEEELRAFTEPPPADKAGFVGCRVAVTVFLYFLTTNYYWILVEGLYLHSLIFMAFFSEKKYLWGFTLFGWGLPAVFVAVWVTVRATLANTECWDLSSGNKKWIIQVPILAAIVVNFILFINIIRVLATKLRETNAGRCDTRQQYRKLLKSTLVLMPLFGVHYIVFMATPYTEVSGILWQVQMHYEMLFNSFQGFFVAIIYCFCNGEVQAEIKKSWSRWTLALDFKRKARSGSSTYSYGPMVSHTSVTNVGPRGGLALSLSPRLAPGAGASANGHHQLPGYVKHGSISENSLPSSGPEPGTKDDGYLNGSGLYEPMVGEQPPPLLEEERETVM
# T1 sequence (P25107 other isoform, or with tags, fused parts or gaps S86P/I132F): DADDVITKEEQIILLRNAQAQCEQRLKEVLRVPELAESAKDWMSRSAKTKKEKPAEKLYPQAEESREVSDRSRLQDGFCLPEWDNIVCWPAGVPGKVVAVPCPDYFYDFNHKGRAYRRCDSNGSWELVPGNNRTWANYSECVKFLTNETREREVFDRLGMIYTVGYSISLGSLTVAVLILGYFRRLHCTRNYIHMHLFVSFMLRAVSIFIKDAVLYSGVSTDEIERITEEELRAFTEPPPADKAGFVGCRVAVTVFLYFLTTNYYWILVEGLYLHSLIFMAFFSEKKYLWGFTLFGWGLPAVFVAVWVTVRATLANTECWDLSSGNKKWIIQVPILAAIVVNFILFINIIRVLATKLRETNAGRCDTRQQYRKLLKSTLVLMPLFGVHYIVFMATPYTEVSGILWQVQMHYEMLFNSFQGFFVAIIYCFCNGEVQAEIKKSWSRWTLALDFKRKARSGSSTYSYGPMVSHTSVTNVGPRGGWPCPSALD
Substance,inhibition of 125I-PTHrP binding by competitor [1],fold higher affinity with expressed HKrK than with R15B [2] [fold],inhibition of 125I-PTHrP binding by competitor [3],inhibition of 125I-PTHrP binding by competitor [4]
"[Nle^8,18, Tyr^34]bPTH(3-34)amide",inhibited,7,inhibited,inhibited
"[Nle^8,18, Tyr^34]bPTH(7-34)amide",inhibited,,inhibited,inhibited
